Our source for the IC50 values is US20250230171A1 (MOMA Therapeutics, Inc., priority 2023, published 2025).

Structures are written as SMILES.

This assay deals with biotinylated Avi-POLθ[2-894] (Homo sapiens (Human), UniProt O75417). Nature of the assay: POLθ ATPase assay (ADP-Glo). As to conditions: n=2; read-out: Biochemical ATPase ADPGlo IC50.
biotinylated Avi-POLθ[2-894], sequence (O75417 2-894): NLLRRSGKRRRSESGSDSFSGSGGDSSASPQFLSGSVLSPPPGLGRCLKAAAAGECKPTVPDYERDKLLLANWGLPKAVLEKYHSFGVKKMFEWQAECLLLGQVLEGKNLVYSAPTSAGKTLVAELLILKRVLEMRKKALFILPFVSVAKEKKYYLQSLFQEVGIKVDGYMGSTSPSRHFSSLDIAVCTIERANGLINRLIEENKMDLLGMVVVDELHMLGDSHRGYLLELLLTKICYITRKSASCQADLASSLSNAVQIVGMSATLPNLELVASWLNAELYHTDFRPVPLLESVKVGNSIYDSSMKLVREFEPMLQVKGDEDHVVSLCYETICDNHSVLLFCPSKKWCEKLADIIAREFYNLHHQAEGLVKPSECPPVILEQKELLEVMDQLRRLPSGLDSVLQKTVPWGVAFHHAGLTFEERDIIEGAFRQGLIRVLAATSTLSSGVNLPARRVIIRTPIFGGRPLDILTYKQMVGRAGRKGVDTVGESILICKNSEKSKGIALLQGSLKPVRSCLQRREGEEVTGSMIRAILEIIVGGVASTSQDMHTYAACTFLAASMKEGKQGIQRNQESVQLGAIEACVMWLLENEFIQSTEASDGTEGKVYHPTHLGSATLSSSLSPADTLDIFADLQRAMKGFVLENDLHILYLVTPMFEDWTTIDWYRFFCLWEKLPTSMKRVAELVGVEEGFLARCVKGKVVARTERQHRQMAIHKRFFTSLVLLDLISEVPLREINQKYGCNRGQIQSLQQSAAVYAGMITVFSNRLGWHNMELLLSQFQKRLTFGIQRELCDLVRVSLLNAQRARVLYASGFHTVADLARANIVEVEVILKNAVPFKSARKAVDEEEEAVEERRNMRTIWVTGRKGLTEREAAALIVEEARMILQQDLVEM
As for `COc1cn2cncc2cc1-c1cc(C)ncc1C(=O)Nc1nc2c(s1)CN(C(=O)[C@H]1C[C@@H](OC(F)(F)F)C1)C2` [Example 97, 4-(6-methoxyimidazo[1,5-a]pyridin-7-yl)-6-methyl-N-(5-((1s,3s)-3-(trifluoromethoxy)cyclobutane-1-carbonyl)-5,6-dihydro-4H-pyrrolo[3,4-d]thiazol-2-yl)nicotinamide], the IC50 lay within 1 to 15 nM.
`COc1cnccc1-c1cc(C)ncc1C(=O)Nc1nc2c(s1)CN(C(=O)c1ccccn1)C2` [Example 98, 3′-methoxy-6-methyl-N-(5-picolinoyl-5,6-dihydro-4H-pyrrolo[3,4-d]thiazol-2-yl)-[4,4′-bipyridine]-3-carboxamide]: the 50% inhibitory concentration (IC50) was 150 to 900 nM.
The result for `COc1cnc(Cl)cc1-c1cc(C)ncc1C(=O)Nc1nc2c(s1)CC(N[C@H]1C[C@@H](O)C1)CC2` (stereo partly drawn) [Example 99, 2′-chloro-N-(6-(((1s,3s)-3-hydroxycyclobutyl)amino)-4,5,6,7-tetrahydrobenzo[d]thiazol-2-yl)-5′-methoxy-6-methyl-[4,4′-bipyridine]-3-carboxamide] reads ≥ 900 nM.
As to `COc1cnc(Cl)cc1-c1cc(C)ncc1C(=O)Nc1nc2c(s1)CN(C(=O)c1ncccn1)C2` [Example 100, 2′-chloro-5′-methoxy-6-methyl-N-(5-(pyrimidine-2-carbonyl)-5,6-dihydro-4H-pyrrolo[3,4-d]thiazol-2-yl)-[4,4′-bipyridine]-3-carboxamide], the 50% inhibitory concentration (IC50) lay within 1 to 15 nM.
Take `COc1cnc(Cl)cc1-c1cc(C)ncc1C(=O)Nc1nc2c(s1)CN(C(=O)[C@@H]1C[C@H]1CO)C2` [Example 102, 2′-chloro-N-(5-((1R,2R)-2-(hydroxymethyl)cyclopropane-1-carbonyl)-5,6-dihydro-4H-pyrrolo[3,4-d]thiazol-2-yl)-5′-methoxy-6-methyl-[4,4′-bipyridine]-3-carboxamide]: the half-maximal inhibitory concentration (IC50) lay in the range of 1 to 15 nM.
Take `COc1cnc(Cl)cc1-c1cc(C)ncc1C(=O)Nc1nc2c(s1)CN(C(=O)[C@@H]1C[C@@H]1C(F)F)C2` [Example 104, 2′-chloro-N-(5-((1R,2S)-2-(difluoromethyl)cyclopropane-1-carbonyl)-5,6-dihydro-4H-pyrrolo[3,4-d]thiazol-2-yl)-5′-methoxy-6-methyl-[4,4′-bipyridine]-3-carboxamide]: the IC50 was in the range of 15 to 50 nM.
In the case of `COc1cnc(Cl)cc1-c1cc(C)ncc1C(=O)Nc1nc2c(s1)CN(C(=O)[C@H]1C[C@](F)(CO)C1)C2` [Example 105, 2′-chloro-N-(5-((1s,3s)-3-fluoro-3-(hydroxymethyl)cyclobutane-1-carbonyl)-5,6-dihydro-4H-pyrrolo[3,4-d]thiazol-2-yl)-5′-methoxy-6-methyl-[4,4′-bipyridine]-3-carboxamide], the IC50 lay in the range of 15 to 50 nM.
For `COc1cnc(Cl)cc1-c1cc(C)ncc1C(=O)Nc1nc2c(s1)CN(C(=O)[C@H]1C[C@@](F)(CO)C1)C2` [Example 106, 2′-chloro-N-(5-((1r,3r)-3-fluoro-3-(hydroxymethyl)cyclobutane-1-carbonyl)-5,6-dihydro-4H-pyrrolo[3,4-d]thiazol-2-yl)-5′-methoxy-6-methyl-[4,4′-bipyridine]-3-carboxamide], the IC50 was 1 to 15 nM.
Turning to `COc1cnc(Cl)cc1-c1cc(C)ncc1C(=O)Nc1nc2c(s1)CN(C(=O)[C@@H]1C[C@@H]1CO)C2` [Example 107, 2′-chloro-N-(5-((1R,2S)-2-(hydroxymethyl)cyclopropane-1-carbonyl)-5,6-dihydro-4H-pyrrolo[3,4-d]thiazol-2-yl)-5′-methoxy-6-methyl-[4,4′-bipyridine]-3-carboxamide], the IC50 was in the range of 50 to 150 nM.
Take `COc1cnc(C)cc1-c1cc(C)ncc1C(=O)Nc1nc2c(s1)CN(C(=O)c1ccccn1)C2` [Example 108, 5′-methoxy-2′,6-dimethyl-N-(5-picolinoyl-5,6-dihydro-4H-pyrrolo[3,4-d]thiazol-2-yl)-[4,4′-bipyridine]-3-carboxamide]: the IC50 was in the range of 15 to 50 nM.
For `COc1cnc(Cl)cc1-c1cc(C)ncc1C(=O)Nc1nc2c(s1)CN(C(=O)C1CCC(O)(C(F)(F)F)CC1)C2` (stereo not drawn) [Example 112], the IC50 was 1 to 15 nM.
Take `COc1cnc(Cl)cc1-c1cc(C)ncc1C(=O)Nc1nc2c(s1)CN(C(=O)[C@H]1CC[C@@H](O)CC1)C2` [Example 115]: the half-maximal inhibitory concentration (IC50) lay in the range of 15 to 50 nM.
Turning to `COc1cnc(Cl)cc1-c1cc(C)ncc1C(=O)Nc1nc2c(s1)CN(C(=O)C1CC(OC(C)C)C1)C2` (stereo not drawn) [Example 119], the IC50 fell in the range of 1 to 15 nM.
The result for `COc1cnc(Cl)cc1-c1cc(C)ncc1C(=O)Nc1nc2c(s1)CN(C(=O)C1CN(CC(F)(F)F)C1)C2` [Example 120] reads 15 to 50 nM; that for `COc1cn2cncc2cc1-c1cc(C)ncc1C(=O)Nc1nc2c(s1)CN(C(=O)c1cccnc1OC)C2` [Example 124], 1 to 15 nM.
Consider `COc1cnc(Cl)cc1-c1cc(C)ncc1C(=O)Nc1nc2c(s1)CN(C(=O)N1CC[C@@H](O)C1)C2` [Example 129], for which the IC50 is 1 to 15 nM.
`COc1cnc(Cl)cc1-c1cc(C)ncc1C(=O)Nc1nc2c(s1)CN(C(=O)c1ccnn1CC(F)F)C2` [Example 143, 2′-chloro-N-(5-(1-(2,2-difluoroethyl)-1H-pyrazole-5-carbonyl)-5,6-dihydro-4H-pyrrolo[3,4-d]thiazol-2-yl)-5′-methoxy-6-methyl-[4,4′-bipyridine]-3-carboxamide]: the concentration for half-maximal inhibition (IC50) was 1 to 15 nM.
In the case of `COc1cnc(Cl)cc1-c1cc(C)ncc1C(=O)Nc1nc2c(s1)CN(C(=O)N1CC(O)C1)C2` [Example 149], the concentration for half-maximal inhibition (IC50) is 50 to 150 nM.
As for `COc1cnc(Cl)cc1-c1cc(C)ncc1C(=O)Nc1nc2c(s1)CN(C(=O)c1cn(C)nc1C(F)F)C2` [Example 173], the IC50 was in the range of 1 to 15 nM.
With `COc1ccc(C#N)cc1-c1cc(C)ncc1C(=O)Nc1nc2c(s1)CN(C(=O)C1CC(OC(F)F)C1)CC2` (stereo not drawn) [Example 176], the half-inhibitory concentration (IC50) is 50 to 150 nM.
The result for `COc1cnc(Cl)cc1-c1cc(C)ncc1C(=O)Nc1nc2c(s1)CN(C(=O)C1CCC(O)C1)C2` (stereo not drawn) [Example 180] reads 1 to 15 nM; that for `COc1cnc(Cl)cc1-c1cc(C)ncc1C(=O)Nc1nc2c(s1)CN(C(=O)[C@@H]1CCOC1)C2` [Example 181], 1 to 15 nM; that for `COc1cnc(Cl)cc1-c1cc(C)ncc1C(=O)Nc1nc2c(s1)CN(C(=O)c1ncco1)C2` [Example 182], 1 to 15 nM.
On to `COc1cnc(Cl)cc1-c1cc(C)ncc1C(=O)Nc1nc2c(s1)CN(C(=O)[C@H]1CCCOC1)C2` [Example 183], for which the IC50 lay in the range of 1 to 15 nM.
`COc1cnc(Cl)cc1-c1cc(C)ncc1C(=O)Nc1nc2c(s1)CN(C(=O)C1CCOCC1)C2` [Example 184]: the concentration for half-maximal inhibition (IC50) was in the range of 1 to 15 nM.
In the case of `COc1cnc(Cl)cc1-c1cc(C)ncc1C(=O)Nc1nc2c(s1)CN(C(=O)[C@H]1C[C@@H](O)C1)C2` [Example 185], the 50% inhibitory concentration (IC50) lay within 1 to 15 nM.
As to `COc1cnc(Cl)cc1-c1cc(C)ncc1C(=O)Nc1nc2c(s1)CN(C(=O)[C@H]1CCCCO1)C2` [Example 186], the IC50 fell in the range of 1 to 15 nM.
For the molecule `COc1cnc(Cl)cc1-c1cc(C)ncc1C(=O)Nc1nc2c(s1)CN(C(=O)[C@H]1C[C@H](O)C1)C2` [Example 187], the IC50 is 1 to 15 nM.
For `COc1ccc(C#N)cc1-c1cc(C)ncc1C(=O)Nc1nc2c(s1)CN(C(=O)C1CC(C)C1)C2` (stereo not drawn) [Example 189], the IC50 is 1 to 15 nM.
The result for `COc1cnc(Cl)cc1-c1cc(C)ncc1C(=O)Nc1nc2c(s1)CN(C(=O)C1CC3(COC3)C1)C2` [Example 192] reads 1 to 15 nM.
With `COc1cnc(Cl)cc1-c1cc(C)ncc1C(=O)Nc1nc2c(s1)CN(C(=O)[C@H]1C[C@@](C)(O)C1)C2` [Example 193], the IC50 lay within 1 to 15 nM.
On to `COc1cnc(Cl)cc1-c1cc(C)ncc1C(=O)Nc1nc2c(s1)CN(C(=O)[C@H]1C[C@](O)(C(F)F)C1)C2` [Example 195], for which the IC50 was in the range of 1 to 15 nM.
To `COc1cnc(Cl)cc1-c1cc(C)ncc1C(=O)Nc1nc2c(s1)C[C@@H](NC(=O)C1CC1)CC2` [Example 200] belongs 50 to 150 nM; to `COc1cnc(Cl)cc1-c1cc(C)ncc1C(=O)Nc1nc2c(s1)CN(C(=O)C1CC(O)(C(F)(F)F)C1)C2` (stereo not drawn) [Example 204], 1 to 15 nM; to `COc1ccc(C#N)cc1-c1cc(C)ncc1C(=O)Nc1nc2c(s1)CN(C(=O)C1CC1OC)CC2` (stereo not drawn) [Example 207], 15 to 50 nM.
As to `COc1ccc(C#N)cc1-c1cc(C)ncc1C(=O)Nc1nc2c(s1)CN(C(=O)C1CC1C)CC2` (stereo not drawn) [Example 211], the IC50 lay in the range of 15 to 50 nM.
For `COc1ccc(C#N)cc1-c1cc(C)ncc1C(=O)Nc1nc2c(s1)CN(S(=O)(=O)C1COC1)C2` [Example 217], the 50% inhibitory concentration (IC50) is 50 to 150 nM.
The result for `COc1ccc(C#N)cc1-c1cc(C)ncc1C(=O)Nc1nc2c(s1)CN(C(=O)[C@H]1C[C@H](OC)C1)C2` [Example 221] reads 15 to 50 nM; that for `COc1ccc(C#N)cc1-c1cc(C)ncc1C(=O)Nc1nc2c(s1)CN(C(=O)[C@@H]1CCCOC1)CC2` [Example 223], 150 to 900 nM; that for `COc1ccc(C#N)cc1-c1cc(C)ncc1C(=O)Nc1nc2c(s1)CN(C(=O)C1CCC1)CC2` [Example 224], 150 to 900 nM.
With `COc1ccc(C#N)cc1-c1cc(C)ncc1C(=O)Nc1nc2c(s1)CN(S(=O)(=O)NC1CCCC1)C2` [Example 230], the 50% inhibitory concentration (IC50) fell in the range of 1 to 15 nM.
Regarding `COc1cnc(Cl)cc1-c1cc(C)ncc1C(=O)Nc1nc2c(s1)CN(S(=O)(=O)C1CC1)C2` [Example 234], the concentration for half-maximal inhibition (IC50) lay in the range of 1 to 15 nM.
For `COc1ccc(C#N)cc1-c1cc(C)ncc1C(=O)Nc1nc2c(s1)CN(C(=O)[C@@H]1CC[C@H]1OC)C2` [Example 235], the IC50 lay in the range of 1 to 15 nM.
Consider `COc1ccc(C#N)cc1-c1cc(C)ncc1C(=O)Nc1nc2c(s1)CN(C(=O)c1ccccn1)CC2` [Example 247], for which the IC50 is 150 to 900 nM.
To `COc1ccccc1-c1cc(C)ncc1C(=O)Nc1nc2c(s1)CN(C(=O)c1nc3ccccn3n1)C2` [Example 252] belongs 50 to 150 nM; to `COc1ccccc1-c1cc(C)ncc1C(=O)Nc1nc2c(s1)CN(C(=O)c1cccc3ccnn13)C2` [Example 253], 15 to 50 nM.
As for `COc1ccccc1-c1cc(C)ncc1C(=O)Nc1nc2c(s1)CN(C(=O)C1COC1)C2` [Example 256], the IC50 is 150 to 900 nM.
As for `COc1ccc(C#N)cc1-c1cc(C)ncc1C(=O)Nc1nc2c(s1)CN(C(=O)[C@@H]1CCCO1)C2` [Example 261], the IC50 was 15 to 50 nM.
